Target: Carbonic anhydrase 3 (Homo sapiens) (UniProt P07451)
Sequence (P07451 whole entry): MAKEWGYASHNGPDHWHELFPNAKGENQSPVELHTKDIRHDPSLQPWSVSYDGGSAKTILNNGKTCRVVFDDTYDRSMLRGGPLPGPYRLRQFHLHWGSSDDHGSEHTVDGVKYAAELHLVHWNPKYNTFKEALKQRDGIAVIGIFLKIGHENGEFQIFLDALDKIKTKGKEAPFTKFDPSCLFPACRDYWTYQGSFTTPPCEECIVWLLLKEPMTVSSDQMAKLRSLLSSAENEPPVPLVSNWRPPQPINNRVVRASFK
Description: Inhibition of human recombinant CA3 by stopped flow CO2 hydration assay

In the case of `NS(=O)(=O)c1cc(C2(O)NC(=O)c3ccccc32)ccc1Cl` (stereo unspecified), the Ki is reported as 11 µM.

From ChEMBL document CHEMBL1139383, “Carbonic anhydrase inhibitors. Comparison of chlorthalidone and indapamide X-ray crystal structures in adducts with isozyme II: when three water molecules and the keto-enol tautomerism make the difference” (J Med Chem, 2009)
